The test system of this assay is Primary sebocytes. Briefly: Lipid reduction in primary sebocytes, AdipoRed dye, mean fluorescence intensity by flow cytometry. The format is cell-based, human. The note with it: primary sebocytes incubated 3 days, 10 μM for the compound, 31.25 μg/mL for the extract, average of 10,000 cells. As to the method:
Primary sebocytes were derived from the forehead of a person. The same cell line was used in all experiments. Flow cytometry experiments were conducted on the BD LSR Fortessa X-20 as follows: Sebocytes stained with a lipid dye (AdipoRed™) were first analyzed according to size and granularity with only single cells selected for AdipoRed™ signal intensity measurement. […] Cells treated with compositions of the invention were compared to vehicle-treated cells to determine the percentage of lipid reduction. […] The cells were washed with PBS buffer [5 mL for a 10 cm culture plate] and then incubated at 37° C. with 0.125% Trypsin-EDTA (Gibco, 15400054) [2 mL of Trypsin for a 10 cm culture plate] for 5-10 minutes. […] When all cells had detached, fixative solution (250 μL; […] The tubes were stored on ice before flow cytometry. Mean fluorescence intensity of the lipid signal can be obtained from the flow cytometer plot which are used to determine the inhibitory effect of the compounds on the sebocytes. The lipid reduction effects of the compositions of the invention were measured against DMSO as a negative control, and against the known lipid-reducing compounds epigallocatechin gallate (EGCG) and salicylic acid (SA) as positive controls. The results are shown in Table 3 and FIGS. 1 to 7.
Background: In flow cytometry, cells or beads pass a laser one at a time.

`O=C(O[C@@H]1Cc2c(O)cc(O)cc2O[C@@H]1c1cc(O)c(O)c(O)c1)c1cc(O)c(O)c(O)c1` [EGCG, epigallocatechin gallate]: the “Percentage Reduction in Mean Fluorescence Intensity (Against DMSO Control)” value was determined as 13.4%.
